The assay deals with mold fungi. The experiment in a line: Moldicide assay on treated southern yellow pine stakes (ASTM D4445-91, ASTM D3273-00). To be noted: dip-treated stakes, relative to the water control. The class given is cell-based.

Description: All moldicide assays were conducted via ASTM standard D4445-91 (1998) and ASTM D3273-00 (1986).
Six groups of southern yellow pine stakes (12 replicates) were dip-treated (30 seconds) with treatments 3-1 through 3-6, inoculated with mold spores, incubated, and examined after 12 weeks (Table 3).
Six groups of southern yellow pine stakes (12 replicates) were dip-treated (30 seconds) with treatments 4-1 through 4-6, inoculated with mold spores, incubated, and examined after 12 weeks.

`OB(O)O` [Boric acid, boric acid]: the “moldicide activity (in words)” value is on record as “no moldicide activity”. Take `O.O.O.O.O=BOB1OB(OB=O)OB2OB([O-])OB([O-])OB(O1)O2.[Na+].[Na+]` [DOT, disodium octaborate tetrahydrate]: the “moldicide activity (in words)” value was “no moldicide activity”.

For the origin of these results see patent US8900720B2, “Multi-functional wood preservatives based on a borate/fatty acid combination” (Summerdale, Inc, priority 2010, dated 2014).
